Tested on: ANC
Assay: Chemotherapeutic doublet cycle dose modifier (Taxol, Gemzar), ANC marker
Format: in vivo
Settings: ANC of patient on doublet
Source text: Gemzar and Taxol are used in this example as dual agents. Table 2 illustrates a method of revising a drug dose in treating a patient with two pharamcologic and non-pharmacological modalities to optimize pharmacologic outcome, e.g., to reduce risk of an adverse drug event while assessing the clinical relevancy and validity of the measured surrogate markers.
Previous Level of Toxicity-Efficacy (PLTE) is a value directly entered such as from a lab report. It is the numerical value of the marker of toxicity or efficacy reported at the previous dose cycle adjustment (evaluated at a specified elapsed time sufficient to capture the nadir of the dose effect). The surrogate marker is selected when the dose modifier is constructed.
Current Level of Toxicity-Efficacy (CLTE) is a value directly entered such as from a lab report. It is the numerical value of the marker of toxicity or efficacy reported with the current dose cycle. The surrogate marker is that value that illustrates the expression of the toxicity or efficacy of the agent on a specific and pre-selected value determined when the dose modifier is constructed. […] If valid, then the value is fully appreciated and the dose modification can be calculated. […]
Projected Marker Agent 1 (Taxol) (PM1) is calculated by a dose modifier. […]
Projected Marker Agent 2 (Gemzar) (PM2) is calculated by a dose modifier. […]

CC(=O)O[C@H]1C(=O)[C@@]2(C)[C@H]([C@H](OC(=O)c3ccccc3)[C@]3(O)C[C@H](OC(=O)[C@H](O)[C@@H](NC(=O)c4ccccc4)c4ccccc4)C(C)=C1C3(C)C)[C@]1(OC(C)=O)CO[C@@H]1C[C@@H]2O [Taxol]
Current Level of Toxicity/CLTEM1 (current cycle total dose Taxol 300, Gemzar 6200, marker 9 days after dose): 1.50 | Previous Level of Toxicity/PLTEM1 (previous cycle total dose Taxol 385, Gemzar 7650): 1.00

— patent US20050154537A1, “Methods, program products, and systems for single and multi-agent dosing and other related methods” (priority 2003, published 2005)
